Assay type in all cases: cell-based, Euonymus alatus
In test [1] the test system is E. alatus ‘Compactus’ immature endosperm explants. The test is described as follows: Callus induction from immature endosperm explants. The settings on record: in combination with the same concentration of BA. As for the experimental part:
(§1) Except for rooting, all the media described herein were composed of MS salts (Murashige and Skoog, 1962) with 100 mg/L myo-inositol, 2.0 mg/L glycine, 1.0 mg/L thiamine-HCl, 0.5 mg/L nicotinic acid, 0.5 mg/L pyridoxine-HCl, 0.3 g/L casein hydrolysate, 0.5 g/L 2-(Nmorpholino) ethanesulfonic acid, 30.0 g/L sucrose, and 7.0 g/L agar. The pH of all culture media was adjusted to 5.8 with KOH or HCl before addition of agar. All media were autoclaved at 121° C. for 20 minutes, and all the cultures, except for those specifically mentioned, were maintained at 23±2° C. under 35 to 45 μmol/m^2s light provided by white cool fluorescent tube lamps over a 16-hour photoperiod.
Endosperm tissues with seedcoats and embryos completely removed were used for triploid callus induction (FIG. 1A). […]
Seed coats and embryos were removed, and the immature endosperm explants were cultured in disposable petri dishes (90×20 mm) containing MS medium supplemented with different combinations of four concentrations of BA (2.22, 4.44, 8.88, and 17.76 μM), three concentrations of NAA (2.69, 5.38, and 10.76 μM), and two concentrations of 2,4-dichlorophenoxy-acetic acid (2,4-D) (2.26 and 9.04 μM) to induce callus formation. […] Callus formation data were recorded at Week 12 of culture, and mean number of immature endosperm explants forming calli was calculated based on three replicates for each treatment. […]

Test [2] has as its system shoots from embryo or endosperm-derived calli. The experiment in a line: Rooting of regenerated shoots. As to the method: After shoot buds were formed from embryo or endosperm-derived calli, they were transferred together with their callus explants into Magenta boxes containing the MS medium supplemented with 4.44 μM BA and 0.49 μM IBA for further growth. When the shoots grew to 1 to 2 cm in height, they were excised from callus tissues and cultured on root induction Medium I, which included half strength WPM (Lloyd and McCown, 1980, Proc. Intl. Plant Prop. Soc., 30:421-427) with 2% sucrose, 0.04% ammonium nitrate, 0.4% agar, 0.14% phytagel (a blended agar and phytagel medium was used to produce a totally transparent medium so that initiation and growth of roots could be easily monitored), and 4.9 μM IBA (Clements, 2007, In vitro induction of polyploidy, rooting, and overcoming the dormancy limitations of Euonymus alatus ‘Compactus,” MS Thesis, Univ. of. Conn., p. 536)). Two weeks later, the shoots were transferred onto rooting Medium II (Clements, 2007), which was IBA-free rooting Medium I with 2 g/L activated charcoal (Kang et al., 2009). The pH of the rooting media was adjusted to 5.2 with KOH or HCl before the addition of gelling agents. The root cultures were transferred to fresh medium every four weeks. […]

Test [3] deals with immature endosperm-derived calli of E. alatus ‘Compactus’. The test is described as follows: Shoot bud induction from immature endosperm-derived calli. The note with it: zeatin at 9.13 or 18.26 μM, kinetin at 9.30 or 18.60 μM, in the presence of 0.49 μM IBA. As to the method: as §1
After 12 weeks of culture, compact, greenish calli formed on six callus induction media supplemented with 2.22, 4.44, or 8.88 μM BA and 2.69 or 5.38 μM NAA were cut into pieces (approximately 0.5 cm×0.5 cm in size) and transferred to the petri dishes containing shoot induction media supplemented with 4.44 or 13.32 μM BA, 9.13 or 18.26 μM zeatin, and 9.30 or 18.60 μM kinetin plus 0.49 μM IBA or 0.57 μM indole-3-acetic acid (IAA). Callus segments also were cultured on hormone free MS medium as a control. […] Bud (shoot bud) formation was recorded at Week 8 of culture. Bud induction rates were calculated by dividing the number of calli forming shoot buds by the number of calli cultured. […]

`O=C(O)COc1ccc(Cl)cc1Cl` [2,4-D, 2,4-dichlorophenoxy-acetic acid]: the “Effectiveness in callus induction compared with NAA” value in test [1] is given as “less effective in callus induction than NAA”. With `O=C(O)CCCc1c[nH]c2ccccc12` [IBA, indole-3-butyric acid], the “Shoots developed into healthy plants with well-developed roots” value in test [2] (Medium I with 4.9 μM IBA two weeks, then IBA-free Medium II with 2 g/L activated charcoal, within 10 weeks of culture) was found to be 85%. Besides, the Shoots rooted result in test [2] (WPM with 4.9 μM IBA for two weeks, then hormone-free WPM with 2.0 g/L activated charcoal for four weeks) is “Eighty five percent”. For `c1coc(CNc2ncnc3[nH]cnc23)c1` [kinetin], the Bud formation result in test [3] is recorded as “failed to induce bud formation”. Turning to `C/C(=C\CNc1ncnc2[nH]cnc12)CO` [zeatin], the Bud formation result in test [3] is “failed to induce bud formation”.

The values above are taken from US20130205449A1, “Methods and Compositions for Production of Triploid Sterile Plants” (University of Connecticut, priority 2011, published 2013).
